# Experimental data reported in US20190365675A1, “COMPOSITIONS FOR THE PREVENTION AND/OR TREATMENT OF ALCOHOL USE DISORDERS” (SERVICIO ANDALUZ DE SALUD, priority 2016, published 2019).
# What was measured:
# Format in all cases: in vivo, Wistar rats
# HMGB1 = HMGB1 levels (ELISA) and nuclear/cytoplasmic ratio (Western blot) in frontal cortex after ethanol intoxication
# Description: The animals were treated with intragastric (i.g.) ethanol 3 times a day using an i.g. cannula (16G needle, Fisher Scientific, Waltham, Mass., USA), following a protocol based on a slightly modified standard 4-day alcohol intoxication pattern (Bernier et al., 2002a, b) (FIG. 1A). The ethanol doses were administered every 8 h for a total time of 4 days. The rats treated with ethanol received an initial loading dose of 5 g/kg of ethanol in a 30% solution (w/v) and then a maximum maintenance dose of 3 g/kg, which were determined based on blood ethanol levels (BEL). This repeated standard alcohol intoxication paradigm kept BEL intoxication relatively constant in a range of sedation/ataxia (190 to 430 mg/dl, Table 3), according to the 6-point alcohol intoxication behavior scale (Majchrowicz, 1975). […] The autoradiograph was quantified by densitometry (NIH ImageJ® software, National Biosciences, Lincoln, Nebr. USA) and expressed as optical density (OD). […] The levels of soluble HMGB1, TNF-α, IL-1β and MCP-1 were determined by means of a commercially available enzyme-linked immunosorbent assay kit (ELISA) (Elabscience Biotechnology Co., Ltd., China, for HMGB-1; RayBiotech®, GA, USA, for TNF-α, IL-1β, and MCP-1). The nuclear/cytosol HMGB1 fraction was determined by means of Western blot analysis.
# MyD88 = MyD88 protein expression in frontal cortex after ethanol intoxication; details: 2-4 h after last ethanol, OEA pre-treatment
# Description: The animals were treated with intragastric (i.g.) ethanol 3 times a day using an i.g. cannula (16G needle, Fisher Scientific, Waltham, Mass., USA), following a protocol based on a slightly modified standard 4-day alcohol intoxication pattern (Bernier et al., 2002a, b) (FIG. 1A). The ethanol doses were administered every 8 h for a total time of 4 days. The rats treated with ethanol received an initial loading dose of 5 g/kg of ethanol in a 30% solution (w/v) and then a maximum maintenance dose of 3 g/kg, which were determined based on blood ethanol levels (BEL). This repeated standard alcohol intoxication paradigm kept BEL intoxication relatively constant in a range of sedation/ataxia (190 to 430 mg/dl, Table 3), according to the 6-point alcohol intoxication behavior scale (Majchrowicz, 1975). The mean dose of ethanol/rat/day (days 1-4) was 7.06 g/kg, similar to other studies (Obernier et al., 2002a, b). OEA (5 mg/kg, i.p., except initial dose of 10 mg/kg i.p.; synthesized as described in Giuffrida et al., 2000) was dissolved in the vehicle (5% Tween-80 in saline solution) and injected 10 minutes before each of the administrations of ethanol by an intragastric gavage. […] The autoradiograph was quantified by densitometry (NIH ImageJ® software, National Biosciences, Lincoln, Nebr. USA) and expressed as optical density (OD). […]
# rats = assay: Forced swim test during acute ethanol withdrawal; details: 48 h after last ethanol; OEA pre-treatment during intoxication
# Description: In this third experiment (n=25), the treatment with ethanol intoxication and pre-treatment with OEA applied in experiment 2 was repeated, and the animals were subjected to elevated plus maze test 24 h and 12 days after the last forced administration of ethanol and to the forced swim test 48 h after the ethanol intoxication protocol. The rats were subjected to the forced swim test two days after the last ethanol force-feeding (see FIG. 1C for the experimental design), and specific behaviors were recorded with a digital video camera for 5 minutes. These same rats were also subjected to the elevated plus maze test equipped with infrared light photography (Panlab, Barcelona, Spain) 1 and 12 days after the last ethanol force-feeding, where the animals were allowed to freely explore the maze for 5 minutes. The tests were performed 3 h after the start of the dark phase.
smiles,measurement,setting,value
"CCCCCCCC/C=C\CCCCCCCC(=O)NCCO [OEA, oleoylethanolamide]",Ethanol intoxication-induced increase in HMGB1 (ELISA),"HMGB1; 2-4 h after last ethanol, OEA 5 mg/kg i.p. (initial 10 mg/kg) 10 min before each ethanol",prevented
same,"HMGB1 n/c ratio (nuclear/cytoplasmic, Western blot)","HMGB1; OEA + ethanol, ethanol alone 1.21, control 1.3",1.48
same,Ethanol-induced increase in expression of MyD88 protein,MyD88,inhibited
same,Forced swim test: immobility,rats,normalizing
same,Forced swim test: latency,rats,normalizing
same,Forced swim test: swimming,rats,normalizing
